Measurements from patent US20150125506A1, “RETINAL PIGMENT EPITHELIAL CELLS DIFFERENTIATED FROM EMBRYONIC STEM CELLS WITH NICOTINAMIDE AND ACTIVIN A” (HADASIT MEDICAL RESEARCH SERVICES AND DEVELOPMENT LTD., priority 2007, published 2015).

What was measured:
hESCs = test: Differentiation of hESC free-floating clusters into pigmented (RPE) cells, counted as pigmented clusters and cells; type: cell-based, human; details: for appearance of clusters harboring pigmented cells: factor added in presence of NA
Procedure: Human ESC (HES1 cell line) and hESCs engineered by lentiviral vector to constitutively express eGFP [Gropp M, Itsykson P, Singer O, Ben-Hur T, Reinhartz E, Galun E, and Reubinoff B E. Stable genetic modification of human embryonic stem cells by lentiviral vectors. Molecular Therapy 7:281-7 (2003)] were cultured on human foreskin fibroblasts feeder layers in KO medium (KOM) consisting of 86% KO-DMEM (Gibco, Invitrogen, Gaithersburg, Md.), 14% KOSR (Gibco), 1 mM glutamine, 1% nonessential amino acids, 50 units/ml penicillin (Gibco), 50 μg/ml streptomycin, (Gibco) and 4 ng/ml bFGF (R&D Systems, Inc., Minneapolis, Minn.). hES cells were weekly passaged with type IV collagenase (1 mg/ml; Gibco) and plated onto a fresh feeder layer. A week before induction of differentiation, the cells were passaged by dissociation into nearly a single-cell suspension with Ca/Mg^++-free PBS supplemented with 0.05% EDTA (Biological Industries, Beit Haemek, Israel) and were re-plated on the feeders.
(§1) Six-eight days after plating the hES cells that were dissociated into single cells as above; they were removed from the feeders by treatment with type IV collagenase. The clumps were cultured for various periods up to 12 weeks in suspension within bacteriological dishes precoated with 0.1% low melting temperature agarose in KO medium (KOM) consisting of 86% KO-DMEM, 14% KOSR, 1 mM glutamine, 1% nonessential amino acids, 50 units/ml penicillin, and 50 μg/ml streptomycin, in the presence or absence of 10 mM nicotinamide (NA) (Sigma, St. Louis, Mo., USA). In some experiments the medium used was Neurobasal™ medium (Gibco) supplemented with N2 supplement (1:100) (Gibco) (NN medium), which was substituted after 1 week with DMEM/F12 (Gibco) supplemented with B27 (1:50) (Gibco).
(§2) Human ESCs were allowed to differentiate as free-floating clusters in KOM as above for up to six weeks in the presence of nicotinamide (NA) 10 mM. After the first week or 2 weeks of differentiation, cultures were supplemented with activin A 20-180 ng/ml (PeproTech Inc, Rocky Hill, N.J.), with TGFβ3 (1 ng/ml; R&D Systems Inc, Minneapolis, Minn.) with TGFβ1 (1 ng/ml-20 ng/ml; R&D Systems Inc) or with SB431542 (5 μM-50 μM, Sigma). Control cultures were supplemented with NA alone.
(§3) Human ESCs in suspension in KOM were also supplemented after one week with the bone morphogenetic protein (BMP) antagonist noggin (700 ng/ml R&D Systems Inc, Minneapolis, Minn.) in the presence and absence of NA, or during the 3rd and 4th weeks with TGFβ (20 ng/ml PeproTech Inc) in the presence of NA and allowed to differentiate up to an age of 6 weeks as free-floating clusters in suspension.

hESC clusters = test: RT-PCR and Real-time PCR of marker transcripts in differentiating hESC clusters; type: cell-based, human
Procedure: as §1, §2, §3
Total RNA was extracted from hESCs grown under serum-free conditions (1 week after passage), and at sequential time points up to 8 weeks during culturing of hESC-derived clusters in the presence or absence of 10 mM nicotinamide and with or without supplementation with TGFβ-superfamily growth factors or antagonists. The RNA was isolated using TRIzol reagent (Invitrogen, http://www.invitrogen.com) or TRI-Reagent (Sigma). cDNA synthesis was carried out using Moloney murine leukemia virus reverse transcriptase (M-MLV RT) and random primers, according to the manufacturer's instructions (Promega Corporation, Madison, Wis., http://www. promega.com). Polymerase chain reaction (PCR) was carried out using standard protocols with Taq DNA Polymerase (Gibco-BRL). Amplification conditions were as follows: denaturation at 94° C. for 15 seconds, annealing at 55° C. for 30 seconds, and extension at 72° C. for 45 seconds. The number of cycles varied between 18 and 40, depending on particular mRNA abundance. Primer human sequences for identifying human gene transcripts (forward and reverse 5′-3′) and the length of the amplified products were as follows (SEQ ID NOs. 1-12):
For Real-time PCR the levels of transcripts were monitored using TaqMan primers and probes that were derived from the commercially available TaqMan® Assays-on-Demand Gene Expression Products (Applied Biosystems, Foster City, Calif.): Oct4, ID Hs01895061; Musashi, ID Hs01045894; Pax6, ID Hs00240871; Six3, ID Hs00193667; Rx1, ID Hs00429459; Chx10, ID Hs01584048; MiTF-A, ID Hs01115553; MiTF-total, ID Hs01115557; Bestrophin, ID Hs00188249; RPE65, ID Hs00165642; Sox10, ID Hs00366918; Crx, ID Hs00230899. Quantitative PCR analysis was performed using an ABI Prism 7000HT and ABI Prism 7900HT Sequence Detection Systems and TaqMan® Universal PCR Master Mix (Applied Biosystems) according to the manufacturer's protocol. Housekeeping gene β-glucuronidase (GusB, assay ID Hs99999908) was selected as an internal reference for normalization in the Real-Time RT-PCR quantification analysis and the relative expression level of each gene is shown as a relative value when the expression level of day 0 (or untreated cells) was set at 1. Amplification reactions were carried out in duplicates or triplicates according to manufacturer's protocol (Applied Biosystems).

[1] = 4 weeks, NA with activin A vs NA without activin A
[2] = Q-PCR time course, 2 weeks activin A treatment with NA vs NA alone
[3] = TGFβ3 added in presence of NA, 6 weeks

## NC(=O)c1ccc(-c2nc(-c3ccc4c(c3)OCO4)c(-c3ccccn3)[nH]2)cc1 [SB431542]
hESCs; 4 weeks, added together with activin A and NA
  appearance of pigmented clusters: significantly decreased

## TGFβ1: transforming growth factor-β protein subtype, member of the TGFβ superfamily
hESCs
  appearance of clusters harboring pigmented cells: significantly enhanced

## activin A
hESCs; [1]
  percentage of clusters that included pigmented cells: 50.7±6.5%
  percentage of pigmented cells from the total number of cells: 9.9±1.4%
hESCs; activin A studied at various concentrations, in presence of NA
  concentration with optimal augmenting effect on percentage of pigmented cells and expression of Bestrophin and RPE65: 140 ng/mL
hESCs; developed in presence of activin A and NA vs NA alone
  pigmentation of clusters of pigmented cells: darker
hESCs; in presence of NA
  increase of the percentage of pigmented cells in presence of activin A: 5-6 folds
hESC clusters; 6 weeks, in presence of NA, vs NA alone
  expression of MiTF-A with activin A supplementation: not affected
hESC clusters; 6 weeks, in presence of NA, vs NA alone (FIG. 4D)
  increase of RPE65 expression by activin A treatment: over five-fold
hESC clusters; 6 weeks, in presence of NA, vs NA alone (FIG. 4E)
  increase of Bestrophin expression by activin A treatment: over four-fold
hESC clusters; [2]
  expression of RPE marker Bestrophin: significantly increased
  expression of retinal progenitor marker Chx10: significantly increased
  expression of retinal progenitor marker Rx1: significantly increased
hESC clusters; at 4 weeks of differentiation, activin A with NA vs NA alone
  expression level of total MiTF-isoforms: increased
hESC clusters; in presence of NA
  increase of bestrophin expression in presence of activin A: about 10 folds

## bFGF: basic FGF
hESCs
  appearance of clusters harboring pigmented cells: abolished

B1: TGFβ3: transforming growth factor-β protein subtype, member of the TGFβ superfamily (protein, UniProt P10600 301-412, looked up)
Transforming growth factor …: ALDTNYCFRNLEENCCVRPLYIDFRQDLGWKWVHEPKGYYANFCSGPCPYLRSADTTHSTVLGLYNTLNPEASASPCCVPQDLEPLTILYYVGRTPKVEQLSNMVVKSCKCS
modifications: Transforming growth factor beta-3
notes: transforming growth factor-β protein subtype, member of the TGFβ superfamily
hESC clusters; [3]
  expression levels of RPE65: but not of RPE65
  expression levels of transcripts of MiTF-A: significantly augmented

B2: noggin: bone morphogenetic protein (BMP) antagonist (protein, UniProt Q13253 28-232, looked up)
Noggin: QHYLHIRPAPSDNLPLVDLIEHPDPIFDPKEKDLNETLLRSLLGGHYDPGFMATSPPEDRPGGGGGAAGGAEDLAELDQLLRQRPSGAMPSEIKGLEFSEGLAQGKKQRLSKKLRRKLQMWLWSQTFCPVLYAWNDLGSRFWPRYVKVGSCFSKRSCSVPEGMVCKPSKSVHLTVLRWRCQRRGGQRCGWIPIQYPIISECKCSC
hESCs; noggin, absence of NA, 6 weeks
  differentiation of hESC clusters into pigmented RPE cells: blocked
hESCs; noggin, medium also supplemented with NA, 6 weeks
  differentiation into pigmented cells: blocked
hESC clusters; noggin, both presence and absence of NA, Real-Time RT-PCR
  expression of MiTF-A: significantly reduced
